Source: patent US9687467B2, “Diagnosis and treatment of taxane-resistant cancers” (Children's Medical Center Corporation, priority 2011, dated 2017)

Experiments:
T20.2 xenografts = assay: Retransplantation xenograft, paclitaxel-resistant clone; assay type: in vivo, nude mice
Description: (§1) FIGS. 6A-6C are a series of graphs showing data that validate the A549 in vivo paclitaxel resistance model. (FIG. 6A) Tumor cell lines established after an initial round of inoculation and treatment with either vehicle (T28.2) or 15 mg/kg paclitaxel (T20.2) were harvested during log-phase growth and reinjected subcutaneously into the flanks of nude mice. When the average tumor volume was ˜120 mm^3, vehicle (open circles or squares) or 15 mg/kg paclitaxel (closed circles or squares) was administered intraperitoneally every other day. Treatment was continued until tumors reached approximately four times their initial volume. Each curve represents the average tumor growth±s.e.m. for 10 mice per group. […] Each bar represents the average tumor growth±s.e.m. for 10 mice per group. NS: not significant, *P<0.05 as determined by Wilcoxon's rank sum test. (FIG. 6C) Tumors were harvested, cultured in vitro and cell viability was assessed using the MTT assay. Values are presented as percentage of cell survival in paclitaxel-treated cells relative to untreated cells. White bars represent LC50s from tumor cell lines established from T28.2 tumors treated with vehicle. Black bars represent LC50s from cell lines established from T20.2 tumors treated with paclitaxel. Shown are the mean±s.e.m. of two independent experiments, each performed in triplicate. *P<0.05 as determined by Wilcoxon's rank sum test. […]

MES-SA^DX5 cells = assay: MTT cell viability assay, paclitaxel response after miRNA transfection; assay type: cell-based, human; conditions: cells transfected with scrambled non-targeting miRNA, 100 nM paclitaxel
Description: The paclitaxel-resistant cell lines MES-SA^DX5 and A549^TR were transfected with a scrambled non-targeting miRNA (control) and an miR-135a mimic (mimic), respectively. Cells were subsequently treated with 100 nM paclitaxel and cell viability was assessed using the MTT assay (FIGS. 2A, 2B). The percentage of apoptotic cells was assessed by Annexin V-staining and FACS analysis (FIGS. 2C, 2D). Values are presented as percent cell survival in paclitaxel-treated cells relative to untreated cells. *P<0.05, **P<0.001 as determined by Wilcoxon's rank sum test.
Cell growth inhibition was determined by a 3-(4,5-dimethylthiazol-2-yl)-2,5-diphenyltetrazolium (MTT) bromide assay. Briefly, ˜2.5×10^4 cells were plated in a 96-well plate and paclitaxel was added in appropriate concentrations 24 hours later. […] Absorbance was determined using a 96-well SpectraMax plate reader (Molecular Devices, Sunnyvale, Calif.) at 560 nm and 650 nm (background).
Double-stranded RNA oligos representing a mature sequence that mimics endogenous miR-135a, anti-miR-135a designed to inhibit endogenous miR-135a, and anti-miR negative control were all obtained from Ambion™ and were transfected into cell lines at ˜50% confluence at 30 nM concentration with siLentFect (Bio-Rad™). […] The next day, luciferase activity was measured using the Dual-Glo® Luciferase assay system (Promega™, Madison, Wis.). […]

A549 xenografts = assay: A549 xenograft mouse model, paclitaxel treatment; assay type: in vivo, nude mice
Description: (FIG. 5A) A suspension of A549 cells was injected subcutaneously into the flank of a nude mouse. When the average tumor volume was at least 120 mm^3, vehicle or paclitaxel (15 mg/kg) was administered intraperitoneally every other day. Treatment was continued until tumors reached approximately four times their initial volume. Paclitaxel-refractory, as well as vehicle-treated tumors, were digested with collagenase and cultured in vitro (adapted from Norman E et al. Nature Reviews Drug Discovery 2006; 5: 741-754). (FIG. 5B) Tumor growth was determined as the tumor volume on the day of treatment relative to the tumor volume at the start of treatment and presented as a ratio. Each line represents the growth of an individual tumor (T) in an individual mouse (indicated by a number). Groups of mice are separated into control, paclitaxel-responsive and paclitaxel non-responsive (continuous tumor growth in the presence of paclitaxel) groups. […] (FIG. 5C) Vehicle-treated tumors (hatched bars) or paclitaxel-refractory tumors (black bars) were harvested from mice and used to generate two cell lines per tumor. The indicated cell lines were cultured in vitro and cell viability was assessed 72 h after paclitaxel addition using the MTT assay. Bars represent average LC50±s.e.m. from triplicate experiments.
Nude mice were inoculated with A549 cells. At an average tumor volume of ˜120 mm^3, vehicle control and 10 mg/kg (FIG. 10A) or 12.5 mg/kg (FIG. 10B) paclitaxel was administered i.p. every day. Each curve represents the tumor volume on the day of treatment relative to day 0 per mouse.
To further establish the role of miR-135a in paclitaxel response, the A549 xenograft mouse model was adapted from the protocol previously described by Patel et al., 2010. Briefly, nude mice bearing subcutaneous A549 xenografts were injected intraperitoneally with either vehicle or 15 mg/kg paclitaxel until tumors that responded initially began to regrow (FIG. 5A). […] After 120 days of paclitaxel treatment, control and paclitaxel-refractory tumors were harvested. Within two passages in vitro, RNA was harvested for miRNA evaluation and determination of paclitaxel response.
Approximately 4×10^6 human A549 NSCLC cells were resuspended in 50% Matrigel (BD Biosciences, Bedford, Mass.) and injected subcutaneously into the hind flanks of 8-wk old male athymic (nu/nu) nude mice (Taconic Farms, Inc., Hudson, N.Y.). […] Tumor size was determined by digital caliper measurements (length and width in mm), and tumor volume (mm^3) was estimated using the formula (length×width^2)/2. Effects on tumor growth rate were assessed per mouse by determining the tumor volume on the day of treatment relative to the tumor volume on Day 0. […]

T28.2 xenografts = assay: Retransplantation xenograft, paclitaxel-sensitive control clone; assay type: in vivo, nude mice
Description: as §1

SMILES: CC(=O)O[C@H]1C(=O)[C@@]2(C)[C@H]([C@H](OC(=O)c3ccccc3)[C@]3(O)C[C@H](OC(=O)[C@H](O)[C@@H](NC(=O)c4ccccc4)c4ccccc4)C(C)=C1C3(C)C)[C@]1(OC(C)=O)CO[C@@H]1C[C@@H]2O [paclitaxel]
- tumor growth after paclitaxel treatment (T20.2 xenografts; 15 mg/kg paclitaxel i.p.): only a slight delay in tumor growth
- reduction of relative tumor burden at the end of the experiment (T20.2 xenografts; 15 mg/kg paclitaxel i.p. vs vehicle): 1.4 fold
- cell survival in paclitaxel-treated cells relative to untreated cells (MES-SA^DX5 cells): 102.2%
- generation of paclitaxel-refractory tumors (A549 xenografts; 10 mg/kg paclitaxel i.p.): did not generate any paclitaxel-refractory tumors
- generation of paclitaxel-refractory tumors (A549 xenografts; 12.5 mg/kg paclitaxel i.p.): did not generate any paclitaxel-refractory tumors
- mice with prolonged response (A549 xenografts; 15 mg/kg paclitaxel intraperitoneally): 7 out of 10
- mice that became paclitaxel-refractory (A549 xenografts; 15 mg/kg paclitaxel intraperitoneally, continued treatment): 3 out of 10
- tumor growth after paclitaxel treatment (T28.2 xenografts; 15 mg/kg paclitaxel i.p.): shrank substantially
- reduction of relative tumor burden at the end of the experiment (T28.2 xenografts; 15 mg/kg paclitaxel i.p. vs vehicle, P=0.003): 4.5 fold
